Data reported in US20140275511A1, “PURIFICATION OF […]” (priority 2013, published 2014).

What was measured:
[1] = test system: Valley Fever (coccidioidomycosis); settings: mouse, in vivo; cited from earlier work

C[C@@H]([C@H](N)C(=O)N[C@H](C(=O)O)[C@H]1O[C@@H](n2ccc(=O)[nH]c2=O)[C@H](O)[C@@H]1O)[C@H](O)c1ccc(O)cn1 [Nikkomycin Z]
stability of broth at pH 4: reasonably stable for at least a week
effectiveness at treating infected animals [1]: quite effective at treating infected animals
